Measured values published in US20050172344A1, “Cell cultures from animal models of Alzheimer's disease for screening and testing drug efficacy” (priority 2002, published 2005).

How the values were obtained:
Format in all cases: cell-based, mouse
[1] = tested on: cultured murine hippocampal neurons; assay: evoked EPSCs and tetanus-induced potentiation in cultured neurons; conditions: for effect on EPSC amplitude (in words): evoked EPSCs, FIG. 2B
[2] = tested on: cultured hippocampal neurons from double transgenic mAPP/mPS1 mice; assay: basal mEPSC frequency (spontaneous neurotransmitter release), whole cell patch clamp, mAPP/mPS1 cultures
[3] = tested on: cultured hippocampal neurons from WT mice; assay: basal mEPSC frequency (spontaneous neurotransmitter release), whole cell patch clamp, WT cultures
[4] = tested on: cultured hippocampal neurons from double transgenic mAPP/mPS1 mice; assay: glutamate-induced enhancement of mEPSC frequency (synaptic plasticity), mAPP/mPS1 cultures
[5] = tested on: cultured hippocampal neurons from WT mice; assay: glutamate-induced increase of mEPSC frequency, WT cultures
[6] = tested on: cultured hippocampal neurons from WT mice; assay: FM 1-43 vesicle cycling: number of active presynaptic boutons, WT cultures
Source text: Cationic styrylpyridinium dye FM 1-43 has become an established tool for identifying actively firing neurons and for investigating the mechanisms of activity-dependent vesicle cycling in widely different species. These water soluble dyes, which are non-toxic to cells virtually nonfluorescent in aqueous medium, become internalized within recycled synaptic vesicles and the nerve terminals become brightly stained. The amount of FM 1-43 taken up per vesicle by endocytosis equals the amount of dye released upon exocytosis.
One of the methods to induce exocytosis/endocytosis in the neuronal culture is by perfusion of the hyperkalemic solution. […] The perfusion solution is then changed back to normal bath solution for 10 minutes to wash off the dye from the external medium. ADVASEP-7 (1 mM, CyDex, Inc., Overland Park, Kans.), an anionic cyclodextrin complexing agent is introduced for 60 seconds in the washing bath solution at 1 and 6 minutes of washing for enhanced removal of the dye from the external medium (FIG. 6A). After 10 min wash period, which is sufficient for the complete recycling and repriming of the dye-stained population of synaptic vesicles, an image was then taken to record the loading of FM 1-43 in the synaptic boutons. The culture is then exposed to multiple 15 seconds application of hyperkalemic bath solution (without FM 1-43) to evoke repeated cycles of exocytosis, which facilitate release of the dye from the vesicles. An image is taken after 30 minutes of repeated cycles of exocytosis and washing with normal bath solution. The difference between the images before and after multiple exposures to hyperkalemic solution gives the measure of FM 1-43 stained vesicles.
To study glutamate-induced presynaptic plasticity changes, the culture is exposed to glutamate (200 μM) in Mg^2+ free bath solution for 30 seconds and then washed out in approximately 1 minute. After 30 minutes of glutamate exposure, the staining and destaining procedure is repeated. NMDA receptor antagonist, d-AP5 (40 μM) and non-NMDA receptor antagonist, CNQX (20 μM) are included in the hyperkalemic solution to block possible recurrent excitation and induction of activity-dependent plasticity. All images were acquired using Nikon D-Eclipse C1 confocal microscope. Cultures were viewed with 60×/1.2 nA water immersion objective. An investigator blinded to experimental conditions obtained quantitative data using NIH Image (v. 1.61). For each image, the intensity of individual puncta and total number of puncta was assessed. FIG. 6B illustrates exemplary cycling vesicles before and after glutamate exposure in cell cultures from wild type (WT) and mAPP/mPS1 littermates. A brief application of glutamate produces enhancement of cycling vesicles in WT but not mAPP/mPS1 cell cultures (FIG. 6C).
Another finding on cell cultures from transgenic mouse models of Alzheimer's disease is represented by the increase in basal number of functional presynaptic release sites as well as the lack of the glutamate-induced increase in number of functional presynaptic release sites. These tests were performed using FM 1-43. Therefore, we also tested whether these phenomena occurred in non transgenic cultures following exposure to exogenous oligomeric Aβ. […] Brief application (˜30 sec) of 200 μM glutamate in Mg^2+ free medium caused a significant increase in number of active boutons in cultures from vehicle-treated WT animals (269.70±33.12%, n=6, p<0.001, one way ANOVA) ) (FIG. 12B). […]

[7] = tested on: cultured hippocampal neurons from WT mice; assay: immunocytochemistry: synapsin I- and synaptophysin-immunoreactive puncta, WT cultures
Procedure: Glutamate in Mg^2+-free bath solution, or normal bath solution (control) was added directly to the culture dish and washed out after approximately 1 min by exchanging the solution with phosphate-buffered saline (PBS), (pH 7.4) 2 times. The cultures were fixed starting approximately 30 min after the application of glutamate, or control solution. The cultures were incubated overnight with affinity-purified rabbit anti-synapsin I (Molecular Probes) diluted 1:200. The secondary antibody was goat anti-rabbit labeled with Rhodamin Red diluted 1:500 in 4% goat serum in PBS. Cells were mounted in Vectashield (Vector Labs) and examined by confocal microscope (Nikon D-Eclipse C1). The cells were excited using the 568 nm lines of a krypton-argon laser to image Cy3. Kalman averages of 4 scans were collected for each image. Ten neurons in each culture dish were selected at random and analyzed by an observer who was blind to the experimental treatment. Fields with roughly equal densities of neurites were chosen for analysis. Synapsin I clusters in a representative field (94×142 μm) around the neuron were quantified using a computer program NIH Image (v. 1.61). Individual clusters were identified based on having a fluorescence intensity that exceeded a threshold set above background and a diameter between 0.5 and 5 μm. For all measures, the mean result from the 10 neurons in the dish was normalized to the mean from control dishes in the same culture batch because variability between different culture batches was greater than between dishes in the same batch. FIG. 7 illustrates the effects of glutamate on the number of synapsin I-immunoreactive clusters in WT and mAPP/mPS1 cell cultures. Synapsin I-immunoreactive clusters are more numerous in glutamate-exposed than control cell WT cultures (FIGS. 7A, 7B).
In light of the microstructural changes involving synapsin I and synaptophysin in cultures from transgenic animals, we also tested whether these changes could be induced by the exogenous application of Aβ. […] We next tested whether the number of synapsin I- and synaptophysin-immunoreactive puncta was increased after glutamate application in Aβ-treated cultures. […] These findings indicate that Aβ can produce coordinate changes in the distribution and/or expression of presynaptic proteins.
Aβ preparation: Oligomeric Aβ42 was prepared as previously described (Stine et al., 2003). Briefly, the lyophilized peptide (American Peptide) was re-suspended in 100% 1,1,1,3,3,3-hexafluoro-2-propanol (HFIP; Sigma). The solution was aliquoted and the HFIP was allowed to evaporate in the fume hood. The resulting clear peptide films were dried under vacuum in a SpeedVac and stored at −20° C. Twenty-four hours prior to use, the aliquots were added dimethylsulfoxide (DMSO) (Sigma) and sonicated for 10 minutes. Oligomeric Aβ42 was obtained by diluting Aβ42-DMSO into cell culture media, vortexed for 30 seconds and incubated at 4° C. for 24 hours until the use. To induce plasticity 200 μM glutamate in a Mg^2+-free solution was added for ˜30 sec.

[8] = Aβ42-treated cultures fixed 30 minutes after 200 μM glutamate application
[9] = WT cultures, 200 pM oligomeric Aβ42 for 24 hours vs vehicle-treated

`N[C@@H](CCCP(=O)(O)O)C(=O)O` [APV] was tested, and the “effect on potentiation of EPSC by high frequency stimulation (in words)” value ([1]; 100 Hz tetani, extracellular application, FIG. 2C) was “blocked” and the “effect on EPSC amplitude (in words)” value [1] was “reduces the amplitude of the EPSCs”.
For `N#Cc1cc2[nH]c(=O)c(=O)[nH]c2cc1[N+](=O)[O-]` [CNQX], the “effect on EPSC amplitude (in words)” value [1] was “blocks the remaining part of the EPSC”.
In the case of `CC(C)C[C@H](NC(=O)[C@H]1O[C@@H]1C(=O)O)C(=O)NCCCCN=C(N)N` [E64], the “basal mEPSC frequency” value ([2]; mAPP/mPS1 cultures treated with E64 1 μM added daily to culture medium) is reported as 435 events/minute, the “effect on basal mEPSC frequency (in words)” value ([2]; mAPP/mPS1 cultures, E64 for 3 to 4 days, FIG. 4) is reported as “re-established normal mEPSC frequency” and the “basal mEPSC frequency” value ([3]; WT cultures treated with E64 1 μM added daily) is reported as 332 events/minute. For the same molecule, the “mEPSC frequency after glutamate (synaptic plasticity)” value ([4]; mAPP/mPS1 cultures treated with E64, 45 minutes after application of glutamate, n=6) was 346.44±41% and the “effect on synaptic plasticity (in words)” value ([4]; mAPP/mPS1 cultures, glutamate-induced mEPSC enhancement, FIG. 5) was “re-established normal synaptic plasticity”.
In the case of “oligomeric Aβ42: lyophilized β-amyloid 42 peptide (American Peptide) treated with HFIP and DMSO, then diluted into culture media to form oligomers”, the “effect on glutamate-induced mEPSC frequency increase (in words)” value ([5]; FIG. 11B) is reported as “blocks”, the “mEPSC frequency after glutamate” value ([5]; WT cultures, 200 pM Aβ42 for 24 hours, 45 min after 200 μM glutamate, n=10) is reported as 104.43±3.05 % of pre values and the “basal mEPSC frequency with vehicle added instead of glutamate” value ([5]; WT cultures, Aβ-treated, vehicle instead of glutamate, n=8) is reported as 112.00±11.34 % of pre values. For the same molecule, the “mEPSC amplitude after glutamate treatment (in words)” value ([5]; cultures treated with Aβ) was “did not produce any change”, the “mean fluorescence intensity of the labeled boutons (in words)” value ([6]; Aβ-treated cultures) was “did not find any change” and the “number of active boutons after glutamate” value ([6]; Aβ-treated cultures, ~30 sec 200 μM glutamate in Mg2+ free medium, n=8) was 86.80±4.6 % increase. The “effect on basal number of active presynaptic boutons (in words)” value ([6]; FIG. 12A) was “increases”, the “effect on glutamate-induced increase in the number of active boutons (in words)” value ([6]; FIG. 12B) was “blocks” and the “basal number of active boutons” value ([6]; WT cultures treated for 24 hrs with Aβ42, n=15) was 38.15±3.6 boutons/unit length of neurite. The “effect on basal frequency of spontaneous release of neurotransmitter (in words)” value ([3]; FIG. 11A) was “increases”, the “mEPSC amplitude vs vehicle-treated cultures (in words)” value ([3]; WT cultures, 200 pM oligomeric Aβ42 for 24 hours) was “did not find any difference” and the “basal frequency of spontaneous release of neurotransmitter” value ([3]; WT cultures, 200 pM oligomeric Aβ42 for 24 hours, n=8) was 671.46 ± 48.28 min⁻¹. The “number of synapsin I-immunoreactive puncta after glutamate” value [7, 8] was 111.55±8.97%, the “number of synaptophysin-immunoreactive puncta after glutamate” value [7, 8] was 115.48±5.76% and the “effect on basal number of synapsin I- and synaptophysin-immunoreactive puncta (in words)” value ([7]; FIG. 13A) was “increases”. The “effect on glutamate-induced increase in synapsin I- and synaptophysin-immunoreactive puncta (in words)” value ([7]; FIG. 13B) was “blocks”, the “basal number of synapsin I immunoreactive puncta” value [7, 9] was 1155.53±6.78 % of control and the “basal number of synaptophysin immunoreactive puncta” value [7, 9] was 146.13±6.15%.
